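Step 1: Grow cells in 96-well plates. Step 2: Expose to compound for 48 hours at 5 concentrations. Step 3: Interpolate endpoints linearly; if unreached, use highest concentration. GI50: concentration for 50% inhibition of growth.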 The source made the active and inactive calls. No stated cut-off is given here; in the data, active = GI50 up to about 1.1 µM and inactive = higher.
Key:
Assay in all cases: NCI-60 cell line screen, 48 h
HCT-116 = system: HCT-116
HT-29 = system: HT-29
OVCAR-4 = system: OVCAR-4
SK-MEL-2 = system: SK-MEL-2
A498 = system: A498
PC-3 = system: PC-3
ACHN = system: ACHN
K562 = system: K562
HOP-92 = system: HOP-92
NCI-H460 = system: NCI-H460
SF-539 = system: SF-539
Hs-578T = system: Hs-578T
BT-549 = system: BT-549
HOP-62 = system: HOP-62
SF-295 = system: SF-295
SK-MEL-28 = system: SK-MEL-28
COLO 205 = system: COLO 205
RPMI-8226 = system: RPMI-8226
LOX IMVI = system: LOX IMVI

Structure (SMILES) | GI50 (HCT-116) | GI50 (HT-29) | GI50 (OVCAR-4) | GI50 (SK-MEL-2) | GI50 (A498) | GI50 (PC-3) | GI50 (ACHN) | GI50 (K562) | GI50 (HOP-92) | GI50 (NCI-H460) | GI50 (SF-539) | GI50 (Hs-578T) | GI50 (BT-549) | GI50 (HOP-62) | GI50 (SF-295) | GI50 (SK-MEL-28) | GI50 (COLO 205) | GI50 (RPMI-8226) | GI50 (LOX IMVI)
CN1C(=O)c2ccc3ccccc3c2C1=O | 77.4 µM (inactive) | > 100 µM (inactive) | > 100 µM (inactive) | > 100 µM (inactive) | 47.3 µM (inactive) | > 100 µM (inactive) | > 100 µM (inactive) | > 100 µM (inactive) | 98.6 µM (inactive) | > 100 µM (inactive) | > 100 µM (inactive) | 73.1 µM (inactive) | > 100 µM (inactive) | > 100 µM (inactive) | > 100 µM (inactive) | > 100 µM (inactive) | > 100 µM (inactive) | > 100 µM (inactive) | 
C=C(Cl)CN1c2ccccc2C=Cc2ccccc21 | 5.01 µM (inactive) | 9.44 µM (inactive) | 21.3 µM (inactive) | 18.7 µM (inactive) | 34.7 µM (inactive) | 9.12 µM (inactive) | 7.05 µM (inactive) |  | 22.3 µM (inactive) | 3.61 µM (inactive) | 18 µM (inactive) | 53.3 µM (inactive) | 46 µM (inactive) | 16.6 µM (inactive) | 10.4 µM (inactive) |  | 12.8 µM (inactive) |  | 11 µM (inactive)
Cc1nnc2n1N=C(c1cc(F)c(Cl)cc1Cl)/C(=C/c1ccc(-c3ccc([N+](=O)[O-])cc3)o1)S2 | 46.1 µM (inactive) | 69.2 µM (inactive) | 66.5 µM (inactive) | 42.6 µM (inactive) | > 100 µM (inactive) | 47.4 µM (inactive) | > 100 µM (inactive) | 31.8 µM (inactive) | > 100 µM (inactive) | > 100 µM (inactive) |  | > 100 µM (inactive) | 58.2 µM (inactive) | > 100 µM (inactive) | > 100 µM (inactive) | > 100 µM (inactive) | 65.9 µM (inactive) | 34 µM (inactive) | 33.2 µM (inactive)
Cn1c(N)cc(=O)nc1N | > 100 µM (inactive) | > 100 µM (inactive) | > 100 µM (inactive) | > 100 µM (inactive) | > 100 µM (inactive) | > 100 µM (inactive) | > 100 µM (inactive) | > 100 µM (inactive) |  | > 100 µM (inactive) | > 100 µM (inactive) | > 100 µM (inactive) | > 100 µM (inactive) | > 100 µM (inactive) | > 100 µM (inactive) | > 100 µM (inactive) | > 100 µM (inactive) | > 100 µM (inactive) | > 100 µM (inactive)
O=C(/C(=C(/Br)I)c1ccccc1)c1ccccc1 | 16 µM (inactive) | 17.9 µM (inactive) |  |  | 15 µM (inactive) | 28.6 µM (inactive) | 29.4 µM (inactive) | 14.4 µM (inactive) | 18.8 µM (inactive) | 19.1 µM (inactive) | 17.2 µM (inactive) | 40.1 µM (inactive) | 22.9 µM (inactive) |  | 27.2 µM (inactive) |  | 17.6 µM (inactive) | 7.1 µM (inactive) | 13.9 µM (inactive)
COc1ccc2c(c1)/C(=C(\C(Cl)=C(Cl)Cl)[N+](=O)[O-])N2 | > 100 µM (inactive) | > 100 µM (inactive) | 49.1 µM (inactive) |  | 92.7 µM (inactive) | 72.1 µM (inactive) | > 100 µM (inactive) | 39 µM (inactive) | > 100 µM (inactive) | > 100 µM (inactive) |  | 80.2 µM (inactive) | 49.7 µM (inactive) | > 100 µM (inactive) | 62.4 µM (inactive) | > 100 µM (inactive) | > 100 µM (inactive) |  | 76.4 µM (inactive)
COc1cc(OC)c2c(=O)c(O)c(-c3ccc(OC)c(OC)c3)oc2c1 | 4.94 µM (inactive) | 28.2 µM (inactive) | 0.607 µM (active) |  | 10.3 µM (inactive) | 3.92 µM (inactive) | 4.36 µM (inactive) | 5.25 µM (inactive) | 2.99 µM (inactive) | 3.94 µM (inactive) | 16.1 µM (inactive) | 17.3 µM (inactive) | 0.755 µM (active) | 3.99 µM (inactive) | 5.37 µM (inactive) | > 25.2 µM (inactive) | 4.84 µM (inactive) | 4.72 µM (inactive) | 3.78 µM (inactive)
C[C@@H](Oc1ccc(Oc2cnc3ccc(Cl)cc3n2)cc1)C(=O)O [R(+)XK469] | 94.2 µM (inactive) | > 100 µM (inactive) | > 100 µM (inactive) | > 100 µM (inactive) | > 100 µM (inactive) | > 100 µM (inactive) | 87.9 µM (inactive) |  | > 100 µM (inactive) | 11.2 µM (inactive) | > 100 µM (inactive) | 60.1 µM (inactive) | > 100 µM (inactive) | 72.8 µM (inactive) | > 100 µM (inactive) | > 100 µM (inactive) | 59.3 µM (inactive) |  | > 100 µM (inactive)
